Source: patent US20170190671A1, “BIS(ARYL)CATECHOL DERIVATIVES AS HERBICIDES” (E I DU PONT DE NEMOURS AND COMPANY, priority 2014, published 2017)

Columns and labels:
Experiment in all cases: Test C preemergence
Assay type in all cases: in vivo
[1] = tested on: giant foxtail (Setaria faberii); conditions: Setaria faberi, pre-emergence, 336 h, scale 0 to 100, read-out: Plant response rating, Foxtail, Giant
Summary of the method: (§1)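 Seeds in loam-sand soil were treated preemergence, and plants at the 1- to 4-leaf stage (2-18 cm) in peat-based medium were sprayed postemergence, with test chemicals in a non-phytotoxic solvent containing surfactant. After 13-15 days in a greenhouse, response was rated visually against controls from 0 (no effect) to 100 (complete control).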

[2] = tested on: waterhemp (common waterhemp, Amaranthus rudis); conditions: Amaranthus tuberculatus, pre-emergence, scale 0 to 100, read-out: Plant response rating, Waterhemp
Summary of the method: as §1

[3] = tested on: lambsquarters (Chenopodium album); conditions: Chenopodium album, pre-emergence, 336 h, scale 0 to 100, read-out: Plant response rating, Lambsquarters
Summary of the method: as §1

[4] = tested on: ragweed (common ragweed, Ambrosia elatior); conditions: Ambrosia artemisiifolia, pre-emergence, 336 h, scale 0 to 100, read-out: Plant response rating, Ragweed
Summary of the method: as §1

[5] = tested on: soybean (Glycine max); conditions: Glycine max, pre-emergence, scale 0 to 100, read-out: Plant response rating, Soybean
Summary of the method: as §1

[6] = tested on: winter wheat (Triticum aestivum); conditions: Triticum aestivum, pre-emergence, 336 h, scale 0 to 100, read-out: Plant response rating, Wheat
Summary of the method: as §1

[7] = tested on: velvetleaf (Abutilon theophrasti); conditions: Abutilon theophrasti, pre-emergence, scale 0 to 100, read-out: Plant response rating, Velvetleaf
Summary of the method: as §1

[8] = tested on: morningglory (Ipomoea coccinea); conditions: Ipomoea, pre-emergence, 336 h, scale 0 to 100, read-out: Plant response rating, Morningglory
Summary of the method: as §1

[9] = tested on: corn (Zea mays); conditions: Zea mays, pre-emergence, 336 h, scale 0 to 100
Summary of the method: as §1

[10] = tested on: pigweed (Amaranthus retroflexus); conditions: Amaranthus retroflexus, pre-emergence, 336 h, scale 0 to 100, read-out: Plant response rating, Pigweed
Summary of the method: as §1

[11] = tested on: Italian ryegrass (Lolium multiflorum); conditions: Lolium multiflorum, pre-emergence, 336 h, scale 0 to 100, read-out: Plant response rating, Ryegrass, Italian
Summary of the method: as §1

[12] = tested on: large (Lg) crabgrass (Digitaria sanguinalis); conditions: Digitaria sanguinalis, pre-emergence, 336 h, scale 0 to 100, read-out: Plant response rating, Crabgrass, Large
Summary of the method: as §1

[13] = tested on: barnyardgrass (Echinochloa crus-galli); conditions: Echinochloa crus-galli, pre-emergence, read-out: Plant response rating, Barnyardgrass
Summary of the method: as §1

[14] = tested on: galium (catchweed bedstraw, Galium aparine); conditions: Galium, pre-emergence, 336 h, scale 0 to 100, read-out: Plant response rating, Galium
Summary of the method: as §1

`N#Cc1cccc(Oc2ncc(Cl)cn2)c1Oc1ccc(Br)cn1` [Compound 15] was tested, and the pest or weed control at 31 g/ha ([1]; 31 g ai/ha, preemergence) was 80%, the pest or weed control at 62 g/ha ([1]; 62 g ai/ha, preemergence) was 100% and the pest or weed control at 125 g/ha ([1]; 125 g ai/ha, preemergence) was 100%. It also gave a pest or weed control at 16 g/ha ([1]; Preemergence, 16 g ai/ha) of 70%, a pest or weed control at 31 g/ha ([2]; 31 g ai/ha, preemergence) of 100% and a pest or weed control at 62 g/ha ([2]; 62 g ai/ha, preemergence) of 100%. The pest or weed control at 125 g/ha ([2]; 125 g ai/ha, preemergence) was 100%, the pest or weed control at 16 g/ha ([2]; Preemergence, 16 g ai/ha) was 100% and the pest or weed control at 31 g/ha ([3]; 31 g ai/ha, preemergence) was 80%. For the same compound, the pest or weed control at 62 g/ha ([3]; 62 g ai/ha, preemergence) was 98%, the pest or weed control at 125 g/ha ([3]; 125 g ai/ha, preemergence) was 95% and the pest or weed control at 16 g/ha ([3]; Preemergence, 16 g ai/ha) was 70%. The pest or weed control at 31 g/ha ([4]; 31 g ai/ha, preemergence) was 30%, the pest or weed control at 62 g/ha ([4]; 62 g ai/ha, preemergence) was 50% and the pest or weed control at 125 g/ha ([4]; 125 g ai/ha, preemergence) was 40%. It also gave a pest or weed control at 16 g/ha ([4]; Preemergence, 16 g ai/ha) of 0%, a plant injury at 31 g/ha ([5]; 31 g ai/ha, preemergence) of 30% and a plant injury at 62 g/ha ([5]; 62 g ai/ha, preemergence) of 40%. The plant injury at 125 g/ha ([5]; 125 g ai/ha, preemergence) was 60%, the plant injury at 16 g/ha ([5]; Preemergence, 16 g ai/ha) was 20% and the plant injury at 31 g/ha ([6]; 31 g ai/ha, preemergence) was 0%. For the same compound, the plant injury at 62 g/ha ([6]; 62 g ai/ha, preemergence) was 5%, the plant injury at 125 g/ha ([6]; 125 g ai/ha, preemergence) was 40% and the plant injury at 16 g/ha ([6]; Preemergence, 16 g ai/ha) was 0%. The pest or weed control at 31 g/ha ([7]; 31 g ai/ha, preemergence) was 75%, the pest or weed control at 62 g/ha ([7]; 62 g ai/ha, preemergence) was 90% and the pest or weed control at 125 g/ha ([7]; 125 g ai/ha, preemergence) was 100%. The pest or weed control at 16 g/ha ([7]; Preemergence, 16 g ai/ha) was 60%, the pest or weed control at 31 g/ha ([8]; 31 g ai/ha, preemergence) was 5% and the pest or weed control at 62 g/ha ([8]; 62 g ai/ha, preemergence) was 40%. The pest or weed control at 125 g/ha ([8]; 125 g ai/ha, preemergence) was 70%, the pest or weed control at 16 g/ha ([8]; Preemergence, 16 g ai/ha) was 5% and the Corn plant response rating (crop injury, 0 = no effect, 100 = complete kill) at 31 g/ha ([9]; 31 g ai/ha, preemergence) was 0%. It also gave a Corn plant response rating (crop injury, 0 = no effect, 100 = complete kill) at 62 g/ha ([9]; 62 g ai/ha, preemergence) of 5%, a Corn plant response rating (crop injury, 0 = no effect, 100 = complete kill) at 125 g/ha ([9]; 125 g ai/ha, preemergence) of 40% and a Corn plant response rating (crop injury, 0 = no effect, 100 = complete kill) at 16 g/ha ([9]; Preemergence, 16 g ai/ha) of 0%. It also gave a pest or weed control at 31 g/ha ([10]; 31 g ai/ha, preemergence) of 100%, a pest or weed control at 62 g/ha ([10]; 62 g ai/ha, preemergence) of 100% and a pest or weed control at 125 g/ha ([10]; 125 g ai/ha, preemergence) of 100%. The pest or weed control at 16 g/ha ([10]; Preemergence, 16 g ai/ha) was 80%, the pest or weed control at 31 g/ha ([11]; 31 g ai/ha, preemergence) was 5% and the pest or weed control at 62 g/ha ([11]; 62 g ai/ha, preemergence) was 40%. The pest or weed control at 125 g/ha ([11]; 125 g ai/ha, preemergence) was 60%, the pest or weed control at 16 g/ha ([11]; Preemergence, 16 g ai/ha) was 0% and the pest or weed control at 31 g/ha ([12]; 31 g ai/ha, preemergence) was 100%. It also gave a pest or weed control at 62 g/ha ([12]; 62 g ai/ha, preemergence) of 100%, a pest or weed control at 125 g/ha ([12]; 125 g ai/ha, preemergence) of 100% and a pest or weed control at 16 g/ha ([12]; Preemergence, 16 g ai/ha) of 75%. The pest or weed control at 31 g/ha ([13]; 31 g ai/ha, preemergence, scale 0 to 100) was 25%, the pest or weed control at 62 g/ha ([13]; 62 g ai/ha, preemergence, scale 0 to 100) was 70% and the pest or weed control at 125 g/ha ([13]; 125 g ai/ha, preemergence, scale 0 to 100) was 98%. The pest or weed control at 16 g/ha ([13]; Preemergence, 16 g ai/ha, scale 0 to 100 (0 no effect, 100 complete control)) was 10%, the pest or weed control at 31 g/ha ([14]; 31 g ai/ha, preemergence) was 100% and the pest or weed control at 62 g/ha ([14]; 62 g ai/ha, preemergence) was 95%. The pest or weed control at 125 g/ha ([14]; 125 g ai/ha, preemergence) was 100% and the pest or weed control at 16 g/ha ([14]; Preemergence, 16 g ai/ha) was 100%.
